SMILES strings stand for the structures. Bounds are passed on as bounds.

Our source for the DC50 values is patent US12404285B2, “KRAS G12D proteolysis targeting chimeras” (PAQ Therapeutics Inc., priority 2022, dated 2025).

The target in the assay is T1, KRAS (G12D)-HiBit in AsPc-1-KRAS (G12D)-HiBit-KI cell (Homo sapiens, UniProt P01116, G12D).
T1 construct: host or cells: AsPc-1-KRAS (G12D)-HiBit-KI cells (knock-in line)
T1 sequence (P01116 1-188 isoform P01116-2 G12D): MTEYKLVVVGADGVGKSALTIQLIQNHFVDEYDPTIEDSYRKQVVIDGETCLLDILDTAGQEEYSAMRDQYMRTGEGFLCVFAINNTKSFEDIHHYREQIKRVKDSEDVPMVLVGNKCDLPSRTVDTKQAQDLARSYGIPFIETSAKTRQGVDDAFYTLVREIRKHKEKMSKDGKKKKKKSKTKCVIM
Description: G12D HiBit assay. The assay is classed as cell-based. Conditions: 24 hours compound treatment, absolute DC50, read-out: Average PHA DC50. On the procedure:
Day 1. Prepared the culture medium for AsPc-1-KRAS (G12D)-HiBit-KI cell (Pharmaron) using RPMI 1640 medium (Gibco, 11875093) with 10% FBS (Gibco, 10099141C) and 1% Penicillin-Streptomycin Liquid (Solarbio, P1400). Cultivated cells in T-75 flasks in a cell culture incubator (Thermo, Model: 371) at 37° C., 5% CO2. Allowed cells to reach approximately 80% confluence before splitting. Rinsed cultivated cells in T-75 flasks with 5 mL PBS (Solarbio, P1020-500). Aspirated off PBS, added 1.5 mL trypsin (Invitrogen, #25300), and incubated at 37° C. for approximately 5 minutes or until the cells detached. Inactivated trypsin by adding excessive serum containing medium. Harvested the cells from flask into cell culture medium and counted the cell number. Seeded AsPc-1-KRAS (G12D)-HiBit-KI cell into 384-well plate (Corning, 3570) (cell density: 5×10^3 cells/well in 50 μL medium) in RPMI 1640 medium and incubated overnight at 37° C. and 5% CO2.
Day 2. Test compounds were dissolved at 0.3 mM in DMSO (Solarbio, D8371) as stock solution. Transferred 45 μL of stock solution to a 384-well plate (Labcyte, 001-14555). Performed 3-fold, 10-points dilution via transferring 15 μL compound into 30 μL DMSO by using TECAN liquid handler (TECAN, Freedom EVO200). The compound plates were spin at room temperature at 1,000 RPM for 1 minute (Eppendorf, 5810R). Transferred 50 nL of diluted compounds from compound source plate into the cell plate by Echo (Labcyte, 550) to achieve final concentrations of 300 nM, 100 nM, 33.3 nM, 11.1 nM, 3.7 nM, 1.23 nM, 0.41 nM, 0.14 nM, 0.046 nM and 0.015 nM, then mixed the cell plate on a plate shaker (Yoning, WZ-4) for 15 seconds at 900 rpm. After compound treatment for 24 hours, removed the plate from incubators and equilibrated at room temperature for 15 minutes. Prepared the HiBit reagent (Promega, N3040) by mixing 10 mL of Nano-Glo®-HiBiT Lytic Buffer with 200 μL of Nano-Glo®-HiBiT Lytic Substrate and 100 μL of LgBiT Protein. Added 20 μL of HiBit reagent into each well of the cell plate and spun the plates at room temperature at 1,000 RPM for 1 minute. Then shook the plates at 600 RPM at room temperature for 20 minutes using a plate shaker (Yoning, WZ-4), and read the luminescence by EnVision (PerkinElmer, 2105-0020).
The inhibition activity was calculated using the following formula: HiBit-G12D level (%)=100%×[Luminescence(Sample)/Mean of Luminescence (HC)] where HC (high control) is obtained from cells treated with 0.1% DMSO only.
Absolute DC50 was calculated by fitting the curve using GraphPad Prism v8.0.2 (analyis 263): Y=Bottom+(100−Bottom)/(1+10^(Log AbsoluteIC50−X)*HillSlope+log((100−Bottom)/(50−Bottom)−1)))
The data are reported in Table 3, wherein “+++”=DC50 less than 100 nM, “++”=DC50 greater than or equal to 100 nM and less than 300 nM; “+”=DC50 greater than or equal to 300 nM.
(In general: The HiBiT peptide binds its large partner to form an active luciferase.)
With `CCc1c(F)ccc2cc(O)cc(-c3ncc4c(N5CCCC6(CCO6)C5)nc(OC[C@@]56CCCN5[C@H](COC(=O)N5CCC(OCCCc7cccc8c7n(C)c(=O)n8C7CCC(=O)NC7=O)CC5)CC6)nc4c3F)c12` (stereo partly drawn) [Compound 34], the DC50 was below 100 nM. For the molecule `C#Cc1c(F)ccc2cc(O)cc(-c3ncc4c(N5CCCC6(CCO6)C5)nc(OC[C@@]56CCCN5[C@H](COC(=O)N5CCC(OCCCc7cccc8c7n(C)c(=O)n8C7CCC(=O)NC7=O)CC5)CC6)nc4c3F)c12` (stereo partly drawn) [Compound 35], the DC50 is below 100 nM. To `C#Cc1c(F)ccc2cccc(-c3ncc4c(N5CCCC6(CCO6)C5)nc(OC[C@@]56CCCN5[C@H](COC(=O)N5CCC(OCCCc7cccc8c7n(C)c(=O)n8C7CCC(=O)NC7=O)CC5)CC6)nc4c3F)c12` (stereo partly drawn) [Compound 36] belongs at least 300 nM; to `C#Cc1c(F)ccc2cccc(-c3ncc4c(N5CC6CCC(C5)N6)nc(OC[C@@]56CCCN5[C@H](COC(=O)N5CCC(OCc7cccc8c7n(C)c(=O)n8C7CCC(=O)NC7=O)CC5)CC6)nc4c3F)c12` (stereo partly drawn) [Compound 37, [(3S,8S)-8-[[4-(3,8-Diazabicyclo[3.2.1]octan-3-yl)-7-(8-ethynyl-7-fluoro-1-naphthyl)-8-fluoro-pyrido[4,3-d]pyrimidin-2-yl]oxymethyl]-1,2,3,5,6,7-hexahydropyrrolizin-3-yl]methyl4-[[1-(2,6-dioxo-3-piperidyl)-3-methyl-2-oxo-benzimidazol-4-yl]methoxy]piperidine-1-carboxylate], 100 to 300 nM; to `C#Cc1c(F)ccc2cccc(-c3ncc4c(N5CC6CCC(C5)N6)nc(OC[C@@]56CCCN5[C@H](COC(=O)N5CCC(CN7CCC(c8cccc9c8n(C)c(=O)n9C8CCC(=O)NC8=O)CC7)CC5)CC6)nc4c3F)c12` (stereo partly drawn) [Compound 38, [(3S,8S)-8-[[4-(3,8-Diazabicyclo[3.2.1]octan-3-yl)-7-(8-ethynyl-7-fluoro-1-naphthyl)-8-fluoro-pyrido[4,3-d]pyrimidin-2-yl]oxymethyl]-1,2,3,5,6,7-hexahydropyrrolizin-3-yl]methyl4-[[4-[1-(2,6-dioxo-3-piperidyl)-3-methyl-2-oxo-benzimidazol-4-yl]-1-piperidyl]methyl]piperidine-1-carboxylate], below 100 nM. As for `C#Cc1c(F)ccc2cccc(-c3ncc4c(N5CC6CCC(C5)N6)nc(OC[C@@]56CCCN5[C@H](COC(=O)NCCCC(=O)N5CCC(c7cccc8c7n(C)c(=O)n8C7CCC(=O)NC7=O)CC5)CC6)nc4c3F)c12` (stereo partly drawn) [Compound 39, [(3S,8S)-8-[[4-(3,8-Diazabicyclo[3.2.1]octan-3-yl)-7-(8-ethynyl-7-fluoro-1-naphthyl)-8-fluoro-pyrido[4,3-d]pyrimidin-2-yl]oxymethyl]-1,2,3,5,6,7-hexahydropyrrolizin-3-yl]methyl N-[4-[4-[1-(2,6-dioxo-3-piperidyl)-3-methyl-2-oxo-benzimidazol-4-yl]-1-piperidyl]-4-oxo-butyl]carbamate], the figure is at least 300 nM.

In the case of `C#Cc1c(F)ccc2cccc(-c3ncc4c(N5CC6CCC(C5)N6)nc(OC[C@@]56CCCN5[C@H](COC(=O)N5CCC7(CC5)CN(CCCc5cccc8c5n(C)c(=O)n8C5CCC(=O)NC5=O)CCO7)CC6)nc4c3F)c12` (stereo partly drawn) [Compound 40], the DC50 is below 100 nM. `C#Cc1c(F)ccc2cccc(-c3ncc4c(N5CC6CCC(C5)N6)nc(OC[C@@]56CCCN5[C@H](COC(=O)N5CCC(CCCCc7cccc8c7n(C)c(=O)n8C7CCC(=O)NC7=O)CC5)CC6)nc4c3F)c12` (stereo partly drawn) [Compound 41]: the DC50 was at least 300 nM. Turning to `C#Cc1c(F)ccc2cccc(-c3ncc4c(N5CC6CCC(C5)N6)nc(OC[C@@]56CCCN5[C@H](COC(=O)N5CC(CN7CCN(c8ccc9c(c8)n(C)c(=O)n9C8CCC(=O)NC8=O)CC7)C5)CC6)nc4c3F)c12` (stereo partly drawn) [Compound 42], the DC50 was below 100 nM. `C#Cc1c(F)ccc2cccc(-c3ncc4c(N5CC6CCC(C5)N6)nc(OC[C@@]56CCCN5[C@H](COC(=O)N5CCC(CCCCc7ccc8c(c7)n(C)c(=O)n8C7CCC(=O)NC7=O)CC5)CC6)nc4c3F)c12` (stereo partly drawn) [Compound 43]: the DC50 is at least 300 nM. For the molecule `C#Cc1c(F)ccc2cccc(-c3ncc4c(N5CC6CCC(C5)N6)nc(OC[C@@]56CCCN5[C@H](COC(=O)N5CCC(CN7CCC(c8ccc9c(c8)n(C)c(=O)n9C8CCC(=O)NC8=O)CC7)CC5)CC6)nc4c3F)c12` (stereo partly drawn) [Compound 44], the DC50 was below 100 nM. Regarding `C#Cc1c(F)ccc2cccc(-c3ncc4c(N5CC6CCC(C5)N6)nc(OC[C@@]56CCCN5[C@H](COC(=O)NCCCC(=O)N5CCC(c7ccc8c(c7)n(C)c(=O)n8C7CCC(=O)NC7=O)CC5)CC6)nc4c3F)c12` (stereo partly drawn) [Compound 45], the DC50 is at least 300 nM.

As to `C#Cc1c(F)ccc2cccc(-c3ncc4c(N5CC6CCC(C5)N6)nc(OC[C@@]56CCCN5[C@H](COC(=O)N5CCC7(CC5)CN(CC#Cc5cccc8c5n(C)c(=O)n8C5CCC(=O)NC5=O)CCO7)CC6)nc4c3F)c12` (stereo partly drawn) [Compound 46], the DC50 was at least 300 nM. As to `C#Cc1c(F)ccc2cccc(-c3ncc4c(N5CC6CCC(C5)N6)nc(OC[C@@]56CCCN5[C@H](COC(=O)N5CCC(CC7CCN(Cc8ccc9c(c8)n(C)c(=O)n9C8CCC(=O)NC8=O)CC7)CC5)CC6)nc4c3F)c12` (stereo partly drawn) [Compound 47], the DC50 is below 100 nM. As to `C#Cc1c(F)ccc2cccc(-c3ncc4c(N5CC6CCC(C5)N6)nc(OC[C@@]56CCCN5[C@H](COC(=O)N5CCC(CC7CCN(c8cccc9c8n(C)c(=O)n9C8CCC(=O)NC8=O)CC7)CC5)CC6)nc4c3F)c12` (stereo partly drawn) [Compound 48], the DC50 is at least 300 nM. As for `C#Cc1c(F)ccc2cccc(-c3ncc4c(N5CC6CCC(C5)N6)nc(OC[C@@]56CCCN5[C@H](COC(=O)N5CCC(CCC7CCN(Cc8cccc9c8n(C)c(=O)n9C8CCC(=O)NC8=O)CC7)CC5)CC6)nc4c3F)c12` (stereo partly drawn) [Compound 49], the figure is at least 300 nM. To `C#Cc1c(F)ccc2cccc(-c3ncc4c(N5CC6CCC(C5)N6)nc(OC[C@@]56CCCN5[C@H](COC(=O)N5CCC(OCCC#Cc7ccc8c(c7)n(C)c(=O)n8C7CCC(=O)NC7=O)CC5)CC6)nc4c3F)c12` (stereo partly drawn) [Compound 50] belongs below 100 nM. As for `C#Cc1c(F)ccc2cccc(-c3ncc4c(N5CC6CCC(C5)N6)nc(OC[C@@]56CCCN5[C@H](COC(=O)N5CCC(C7CCN(Cc8cccc9c8n(C)c(=O)n9C8CCC(=O)NC8=O)CC7)CC5)CC6)nc4c3F)c12` (stereo partly drawn) [Compound 51], the DC50 was below 100 nM. With `C#Cc1c(F)ccc2cccc(-c3ncc4c(N5CC6CCC(C5)N6)nc(OC[C@@]56CCCN5[C@H](COC(=O)N5CCC(OC7CCN(Cc8ccc9c(c8)n(C)c(=O)n9C8CCC(=O)NC8=O)CC7)CC5)CC6)nc4c3F)c12` (stereo partly drawn) [Compound 52], the DC50 is below 100 nM. With `C#Cc1c(F)ccc2cccc(-c3ncc4c(N5CC6CCC(C5)N6)nc(OC[C@@]56CCCN5[C@H](COC(=O)N5CCC(N7CCN(Cc8cccc9c8n(C)c(=O)n9C8CCC(=O)NC8=O)CC7)CC5)CC6)nc4c3F)c12` (stereo partly drawn) [Compound 53, [(3S,8S)-8-[[4-(3,8-diazabicyclo [3.2.1]octan-3-yl)-7-(8-ethynyl-7-fluoro-1-naphthyl)-8-fluoro-pyrido[4,3-d]pyrimidin-2-yl]oxymethyl]-1,2,3,5,6,7-hexahydropyrrolizin-3-yl]methyl4-[4-[[1-(2,6-dioxo-3-piperidyl)-3-methyl-2-oxo-benzimidazol-4-yl]methyl]piperazin-1-yl]piperidine-1-carboxylate], the DC50 was below 100 nM. To `C#Cc1c(F)ccc2cccc(-c3ncc4c(N5CC6CCC(C5)N6)nc(OC[C@@]56CCCN5[C@H](COC(=O)N5CCC(OC7CN(Cc8cccc9c8n(C)c(=O)n9C8CCC(=O)NC8=O)C7)CC5)CC6)nc4c3F)c12` (stereo partly drawn) [Compound 54, [(3S,8S)-8-[[4-(3,8-Diazabicyclo[3.2.1]octan-3-yl)-7-(8-ethynyl-7-fluoro-1-naphthyl)-8-fluoro-pyrido[4,3-d]pyrimidin-2-yl]oxymethyl]-1,2,3,5,6,7-hexahydropyrrolizin-3-yl]methyl 4-[1-[[1-(2,6-dioxo-3-piperidyl)-3-methyl-2-oxo-benzimidazol-4-yl]methyl]azetidin-3-yl]oxypiperidine-1-carboxylate] belongs below 100 nM.
